This passage reports IC50 results from US7776847B2, “Benzisothiazoles useful for treating or preventing HCV infection” (priority 2005, dated 2010).

Usually IC50 stands for the concentration that inhibits the measured activity by half.

A value given as a limit tells only on which side of the number the result lay.

The experiment deals with HCV replicon. As to the kind of experiment: HCV replicon luciferase reporter assay. It counts as cell-based. As to conditions: Hepatitis C virus, Table 5; read-out: IC50. The method, boiled down: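 IC50 is the compound amount halving luciferase signal, measured after 24–48 h treatment at various concentrations. Cells carrying the HCV replicon were pre-incubated 24 h at 37° C, 5% CO2 after seeding at about 5,000–7,500 cells/well before dosing.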
Background: In antiviral work, replicon cells carry a viral genome segment that copies itself.
In the case of `COC(=O)c1cccc(C(=O)NCCNc2nsc3ccccc23)n1` [Entry 80, Methyl 6-(2-(Benzo[d]isothiazol-3-ylamino)ethylcarbamoyl)picolinate], the IC50 was > 5 µM.
To `O=C(O)c1cccc(C(=O)NCCNc2nsc3ccccc23)n1` [Entry 81, 6-(2-(Benzo[d]isothiazol-3-ylamino)ethylcarbamoyl)picolinic Acid] belongs > 5 µM; to `O=C(Cc1c[nH]c2ccccc12)NCCNc1nsc2ccccc12` [Entry 82, N-(2-(Benzo[d]isothiazol-3-ylamino)ethyl)-2-(1H-indol-3-yl)acetamide], > 5 µM; to `COc1cccc(S(=O)(=O)NCCCNc2nsc3ccccc23)c1` [Entry 220, N-(3-(benzo[d]isothiazol-3-ylamino)propyl)-3-methoxybenzenesulfonamide], < 5 µM.
As to `O=S(=O)(NCCCNc1nsc2ccccc12)c1cc(F)c(Br)cc1F` [Entry 221, N-(3-(benzo[d]isothiazol-3-ylamino)propyl)-4-bromo-2,5-difluorobenzenesulfonamide], the IC50 is < 5 µM.
As for `O=S(=O)(NCCCNc1nsc2ccccc12)c1ccc(Br)s1` [Entry 222, N-(3-(benzo[d]isothiazol-3-ylamino)propyl)-5-bromothiophene-2-sulfonamide], the IC50 was < 5 µM.
Consider `O=S(=O)(NCCCNc1nsc2ccccc12)c1ccc(Oc2ccc(Cl)cc2)cc1` [Entry 223, N-(3-(benzo[d]isothiazol-3-ylamino)propyl)-4-(4-chlorophenoxy)benzenesulfonamide], for which the concentration for half-maximal inhibition (IC50) was < 5 µM.
For the compound `N#Cc1ccc(NCCCNc2nsc3ccccc23)nc1` [Entry 224, 6-(3-(benzo[d]isothiazol-3-ylamino)propylamino)pyridine-3-carbonitrile], the IC50 was < 5 µM.
Take `COC(=O)c1cnc(NCCCNc2nsc3ccccc23)nc1C(F)(F)F` [Entry 225, methyl 2-(3-(benzo[d]isothiazol-3-ylamino)propylamino)-4-(trifluoromethyl)pyrimidine-5-carboxylate]: the IC50 was < 5 µM.
With `Clc1ccc(NCCCNc2nsc3ccccc23)nc1` [Entry 226, N-(3-(5-chloropyridin-2-ylamino)propyl)benzo[d]isothiazol-3-amine] the figure was < 5 µM; with `Cc1ccnc(NCCCNc2nsc3ccccc23)c1` [Entry 227, N-(3-(4-methylpyridin-2-ylamino)propyl)benzo[d]isothiazol-3-amine], < 5 µM; with `FC(F)(F)c1ccc(NCCCNc2nsc3ccccc23)nc1` [Entry 228, N-(3-(5-(trifluoromethyl)pyridin-2-ylamino)propyl)benzo[d]isothiazol-3-amine], < 5 µM.
On to `N#Cc1ccnc(NCCCNc2nsc3ccccc23)c1` [Entry 229, 2-(3-(benzo[d]isothiazol-3-ylamino)propylamino)pyridine-4-carbonitrile], for which the half-maximal inhibitory concentration (IC50) was < 5 µM.
Turning to `Clc1cccc(NCCCNc2nsc3ccccc23)n1` [Entry 230, N^1-(benzo[d]isothiazol-3-yl)-N^3-(6-chloropyridin-2-yl)propane-1,3-diamine], the half-maximal inhibitory concentration (IC50) is < 5 µM.
On to `FC(F)(F)c1ccnc(NCCCNc2nsc3ccccc23)c1` [Entry 231, N^1-(benzo[d]isothiazol-3-yl)-N^3-(4-(trifluoromethyl)pyridin-2-yl)propane-1,3-diamine], for which the IC50 is < 5 µM.
As for `O=C(NCCCNc1nsc2ccccc12)c1cccc(OCC(O)CN2CCOCC2)c1` (stereo not drawn) [Entry 232, N-(3-(benzo[d]isothiazol-3-ylamino)propyl)-3-(2-hydroxy-3-morpholinopropoxy)benzamide], the IC50 is < 5 µM.
For `COc1cccc(N2CCN(CC(O)COc3cccc(C(=O)NCCCNc4nsc5ccccc45)c3)CC2)c1` (stereo not drawn) [Entry 233, N-(3-(benzo[d]isothiazol-3-ylamino)propyl)-3-(2-hydroxy-3-(4-(3-methoxyphenyl)piperazin-1-yl)propoxy)benzamide], the IC50 was < 5 µM.
On to `O=C(NCCCNc1nsc2ccccc12)c1ccc(F)cc1` [Entry 234, N-(3-(benzo[d]isothiazol-3-ylamino)propyl)-4-fluorobenzamide], for which the IC50 was < 5 µM.
To `O=C(NCCCNc1nsc2ccccc12)c1ccc(OCc2ccncc2)cc1` [Entry 235, N-(3-(benzo[d]isothiazol-3-ylamino)propyl)-4-(pyridin-4-ylmethoxy)benzamide] belongs < 5 µM.
For `COc1cccc(COc2ccc(C(=O)NCCCNc3nsc4ccccc34)cc2)c1` [Entry 236, N-(3-(benzo[d]isothiazol-3-ylamino)propyl)-4-(3-methoxybenzyloxy)benzamide], the IC50 was < 5 µM.
Turning to `COc1ccc(COc2ccc(C(=O)NCCCNc3nsc4ccccc34)cc2)cc1OC` [Entry 237, N-(3-(benzo[d]isothiazol-3-ylamino)propyl)-4-(3,4-dimethoxybenzyloxy)benzamide], the IC50 is < 5 µM.
As for `O=C(O)COc1ccc(C(=O)NCCCNc2nsc3ccccc23)cc1` [Entry 238, 2-(4-(3-(benzo[d]isothiazol-3-ylamino)propylcarbamoyl)phenoxy) acetic acid], the IC50 was > 5 µM.
Consider `CN(CCCNc1nsc2ccccc12)S(=O)(=O)c1ccccc1C(F)(F)F` [Entry 240, N-(3-(benzo[d]isothiazol-3-ylamino)propyl)-N-methyl-2-(trifluoromethyl)benzenesulfonamide], for which the IC50 is < 5 µM.
`COc1ccc(-c2ccc(CNCCCNc3nsc4nccnc34)cc2)cc1` [Entry 241, N^1-(isothiazolo[5,4-b]pyrazin-3-yl)-N^3-((4′-methoxybiphenyl-4-yl)methyl)propane-1,3-diamine]: the IC50 was < 5 µM.
